Measurements: PubChem BioAssay AID1963983 (Molecular Pharmacology Branch, DTP, NCI, 2024)
Each block holds one molecule with its values, some of them ahead of it.

System: 186277-243-T-J2-PDC multi-cell spheroid viability
Assay: Anticancer human tumor 186277-243-T-J2-PDC patient-derived colon adenocarcinoma cell line growth inhibition [PI3K]
Settings: for viability, T/C: stronger effect = lower value
Summary of the method: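 Multi-cell spheroids combine tumor cells with HUVEC and human MSCs, treated with targeted agents alone or with inavolisib, alpelisib, duvelisib or copanlisib. Concentrations fall in half-log steps from at or near clinical Cmax, or from 10 microM where Cmax is unknown; viability read-out.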

[1] = curve of first compound, second compound 0.00316 µM
[2] = curve of first compound, second compound 0.01 µM
[3] = curve of first compound, second compound 0.0316 µM
[4] = curve of first compound, second compound 0.1 µM
[5] = curve of first compound, second compound 0.316 µM
[6] = curve of first compound, second compound 1 µM
[7] = second compound 0.00316 µM, first compound 0.0316 µM
[8] = second compound 0.00316 µM, first compound 0.1 µM
[9] = second compound 0.00316 µM, first compound 0.316 µM
[10] = second compound 0.00316 µM, first compound 1 µM
[11] = second compound 0.00316 µM, first compound 3.16 µM
[12] = second compound 0.00316 µM, first compound 10 µM
[13] = second compound 0.01 µM, first compound 0.0316 µM
[14] = second compound 0.01 µM, first compound 0.1 µM
[15] = second compound 0.01 µM, first compound 0.316 µM
[16] = second compound 0.01 µM, first compound 1 µM
[17] = second compound 0.01 µM, first compound 3.16 µM
[18] = second compound 0.01 µM, first compound 10 µM
[19] = second compound 0.0316 µM, first compound 0.0316 µM
[20] = second compound 0.0316 µM, first compound 0.1 µM
[21] = second compound 0.0316 µM, first compound 0.316 µM
[22] = second compound 0.0316 µM, first compound 1 µM
[23] = second compound 0.0316 µM, first compound 3.16 µM
[24] = second compound 0.0316 µM, first compound 10 µM
[25] = second compound 0.1 µM, first compound 0.0316 µM
[26] = second compound 0.1 µM, first compound 0.1 µM
[27] = second compound 0.1 µM, first compound 0.316 µM
[28] = second compound 0.1 µM, first compound 1 µM
[29] = second compound 0.1 µM, first compound 3.16 µM
[30] = second compound 0.1 µM, first compound 10 µM
[31] = second compound 0.316 µM, first compound 0.0316 µM
[32] = second compound 0.316 µM, first compound 0.1 µM
[33] = second compound 0.316 µM, first compound 0.316 µM
[34] = second compound 0.316 µM, first compound 1 µM
[35] = second compound 0.316 µM, first compound 3.16 µM
[36] = second compound 0.316 µM, first compound 10 µM
[37] = second compound 1 µM, first compound 0.0316 µM
[38] = second compound 1 µM, first compound 0.1 µM
[39] = second compound 1 µM, first compound 0.316 µM
[40] = second compound 1 µM, first compound 1 µM
[41] = second compound 1 µM, first compound 3.16 µM
[42] = second compound 1 µM, first compound 10 µM
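Note: spheroids exposed to compounds for seven days before viability reading.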
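Throughout, for viability, T/C: 100% = DMSO vehicle control viability.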

SMILES: CC1(C)CCC(CN2CCN(c3ccc(C(=O)NS(=O)(=O)c4ccc(NCC5CCOCC5)c([N+](=O)[O-])c4)c(Oc4cnc5[nH]ccc5c4)c3)CC2)=C(c2ccc(Cl)cc2)C1 + COc1c(OCCCN2CCOCC2)ccc2c3n(c(=NC(=O)c4cnc(N)nc4)nc12)CCN3
IC50 [1]: > 10000 nM | IC50 [2]: > 10000 nM | IC50 [3]: > 10000 nM | IC50 [4]: < 31.6 nM | IC50 [5]: < 31.6 nM | IC50 [6]: < 31.6 nM | viability, T/C [7]: 110% | viability, T/C [8]: 96.2% | viability, T/C [9]: 110% | viability, T/C [10]: 108% | viability, T/C [11]: 93% | viability, T/C [12]: 115% | viability, T/C [13]: 99.1% | viability, T/C [14]: 105% | viability, T/C [15]: 96.5% | viability, T/C [16]: 109% | viability, T/C [17]: 82.6% | viability, T/C [18]: 94% | viability, T/C [19]: 80.8% | viability, T/C [20]: 89.3% | viability, T/C [21]: 80.5% | viability, T/C [22]: 78.5% | viability, T/C [23]: 76.1% | viability, T/C [24]: 71.2% | viability, T/C [25]: 26.6% | viability, T/C [26]: 20.3% | viability, T/C [27]: 21.3% | viability, T/C [28]: 21.3% | viability, T/C [29]: 23.9% | viability, T/C [30]: 16.9% | viability, T/C [31]: 5.48% | viability, T/C [32]: 11.5% | viability, T/C [33]: 4.51% | viability, T/C [34]: 6.03% | viability, T/C [35]: 6.17% | viability, T/C [36]: 4.39% | viability, T/C [37]: 2.94% | viability, T/C [38]: 4.42% | viability, T/C [39]: 3.06% | viability, T/C [40]: 2.7% | viability, T/C [41]: 5.01% | viability, T/C [42]: 2.15%

SMILES: Cc1nc(NC(=O)N2CCCC2C(N)=O)sc1-c1ccnc(C(C)(C)C(F)(F)F)c1 (stereo unspecified)
viability, T/C (compound 0.1 µM): 104% [middle of 8 runs] | viability, T/C (compound 0.316 µM): 110% [middle of 8 runs] | viability, T/C (compound 1 µM): 102% [middle of 8 runs] | viability, T/C (compound 3.16 µM): 54.1% [middle of 8 runs] | viability, T/C (compound 10 µM): 16.6% [middle of 8 runs] | IC50 (compound alone, run of 05/08/2023): 3.62 µM [middle of 8 runs]

SMILES: CC1(C)CCC(Nc2ncc(C(F)(F)F)c(-c3c[nH]c4c(P(C)(C)=O)c(C#N)ccc34)n2)CN1 (stereo unspecified)
viability, T/C (compound 0.0316 µM): 75.1% [middle of 4 runs] | viability, T/C (compound 0.1 µM): 55.2% [middle of 4 runs] | viability, T/C (compound 0.316 µM): 50.5% [middle of 4 runs] | viability, T/C (compound 1 µM): 59.2% [middle of 4 runs] | viability, T/C (compound 3.16 µM): 62.6% [middle of 4 runs] | viability, T/C (compound 10 µM): 0.77% [middle of 4 runs] | IC50 (curve of compound): 3.64 µM [middle of 4 runs]

SMILES: CC(C)NCC(C(=O)N1CCN(c2ncnc3c2C(C)CC3O)CC1)c1ccc(Cl)cc1 (stereo unspecified) + CC(Nc1ncnc2nc[nH]c12)c1cc2cccc(Cl)c2c(=O)n1-c1ccccc1
IC50 [3]: 2280 nM | IC50 [4]: 1060 nM | IC50 [5]: 1110 nM | IC50 [6]: 815 nM | IC50 (curve of first compound, second compound 3.16 µM): 539 nM | IC50 (curve of first compound, second compound 10 µM): 466 nM | viability, T/C [19]: 90.7% | viability, T/C [20]: 78.6% | viability, T/C [21]: 80.1% | viability, T/C [22]: 60.4% | viability, T/C [23]: 45.4% | viability, T/C [24]: 31.2% | viability, T/C [25]: 82.5% | viability, T/C [26]: 94% | viability, T/C [27]: 70.5% | viability, T/C [28]: 50% | viability, T/C [29]: 40.1% | viability, T/C [30]: 28.2% | viability, T/C [31]: 85.6% | viability, T/C [32]: 92.2% | viability, T/C [33]: 68.8% | viability, T/C [34]: 48.9% | viability, T/C [35]: 42.5% | viability, T/C [36]: 26.3% | viability, T/C [37]: 96.7% | viability, T/C [38]: 77.5% | viability, T/C [39]: 63.8% | viability, T/C [40]: 49.6% | viability, T/C [41]: 30% | viability, T/C [42]: 23% | viability, T/C (second compound 3.16 µM, first compound 0.0316 µM): 96.5% | viability, T/C (second compound 3.16 µM, first compound 0.1 µM): 92.8% | viability, T/C (second compound 3.16 µM, first compound 0.316 µM): 58.7% | viability, T/C (second compound 3.16 µM, first compound 1 µM): 36.8% | viability, T/C (second compound 3.16 µM, first compound 3.16 µM): 30.9% | viability, T/C (second compound 3.16 µM, first compound 10 µM): 17.6% | viability, T/C (second compound 10 µM, first compound 0.0316 µM): 77.3% | viability, T/C (second compound 10 µM, first compound 0.1 µM): 78.8% | viability, T/C (second compound 10 µM, first compound 0.316 µM): 54.2% | viability, T/C (second compound 10 µM, first compound 1 µM): 36.3% | viability, T/C (second compound 10 µM, first compound 3.16 µM): 21.4% | viability, T/C (second compound 10 µM, first compound 10 µM): 14.4%

The next lines start with results.

IC50 (curve of compound): 80.8 nM [middle of 4 runs]
SMILES: C#Cc1c(F)ccc2cc(O)cc(-c3ncc4c(N5CC6CCC(C5)N6)nc(OCC56CCCN5CC(F)C6)nc4c3F)c12 (stereo unspecified)
viability, T/C (compound 0.0316 µM): 90.4% [middle of 4 runs] | viability, T/C (compound 0.1 µM): 40.8% [middle of 4 runs] | viability, T/C (compound 0.316 µM): 25.4% [middle of 4 runs] | viability, T/C (compound 1 µM): 15.6% [middle of 4 runs] | viability, T/C (compound 3.16 µM): 14.8% [middle of 4 runs] | viability, T/C (compound 10 µM): 11.7% [middle of 4 runs]

IC50 [1]: 60.3 nM | IC50 [2]: 58.9 nM | IC50 [3]: < 31.6 nM | IC50 [4]: < 31.6 nM | IC50 [5]: < 31.6 nM | IC50 [6]: < 31.6 nM
SMILES: C#Cc1c(F)ccc2cc(O)cc(-c3ncc4c(N5CC6CCC(C5)N6)nc(OCC56CCCN5CC(F)C6)nc4c3F)c12 (stereo unspecified) + CC(Nc1ccc2c(c1)OCCn1cc(N3C(=O)OCC3C(F)F)nc1-2)C(N)=O
viability, T/C [7]: 73.4% | viability, T/C [8]: 31.6% | viability, T/C [9]: 16.4% | viability, T/C [10]: 16.3% | viability, T/C [11]: 12.6% | viability, T/C [12]: 8.99% | viability, T/C [13]: 72.2% | viability, T/C [14]: 31.1% | viability, T/C [15]: 15.8% | viability, T/C [16]: 11.8% | viability, T/C [17]: 14% | viability, T/C [18]: 9.85% | viability, T/C [19]: 48.9% | viability, T/C [20]: 23.6% | viability, T/C [21]: 13.1% | viability, T/C [22]: 14.6% | viability, T/C [23]: 7.53% | viability, T/C [24]: 7.66% | viability, T/C [25]: 24.8% | viability, T/C [26]: 9.05% | viability, T/C [27]: 12.4% | viability, T/C [28]: 7.52% | viability, T/C [29]: 6.59% | viability, T/C [30]: 4.7% | viability, T/C [31]: 10.9% | viability, T/C [32]: 7.34% | viability, T/C [33]: 4.32% | viability, T/C [34]: 4.02% | viability, T/C [35]: 4.87% | viability, T/C [36]: 2.61% | viability, T/C [37]: 15.1% | viability, T/C [38]: 8.27% | viability, T/C [39]: 6.04% | viability, T/C [40]: 3.18% | viability, T/C [41]: 3.45% | viability, T/C [42]: 1.57%
